Experimental data reported in patent US8362000B2, “Azetidinyl diamides as monoacylglycerol lipase inhibitors” (Janssen Pharmaceutica NV, priority 2009, dated 2013).
Changes are numbered by the printed parent chain. Where two headings read alike, the source gives them in different places.

Legend:
MGL = biological target: T1, MGL (Rattus norvegicus, UniProt Q8R431); experiment: 2-AG accumulation assay in rat brain homogenate; type: biochemical; details: rat brain homogenate, 2-AG accumulation as percent of vehicle; for 2-AG accumulation, % of vehicle control at 1 µM: compound 1 μM, read-out: Rat Brain 2AG % VehCntrl (%) @ 1 μM; for 2-AG accumulation, % of vehicle control at 10 µM: compound 10 μM, read-out: Rat Brain 2AG % VehCntrl (%) @ 10 μM
T1 construct: one g rat brain was homogenized using a Polytron homogenizer; from tissue; host or cells: rat brain homogenate
T1 sequence (Q8R431 1-303): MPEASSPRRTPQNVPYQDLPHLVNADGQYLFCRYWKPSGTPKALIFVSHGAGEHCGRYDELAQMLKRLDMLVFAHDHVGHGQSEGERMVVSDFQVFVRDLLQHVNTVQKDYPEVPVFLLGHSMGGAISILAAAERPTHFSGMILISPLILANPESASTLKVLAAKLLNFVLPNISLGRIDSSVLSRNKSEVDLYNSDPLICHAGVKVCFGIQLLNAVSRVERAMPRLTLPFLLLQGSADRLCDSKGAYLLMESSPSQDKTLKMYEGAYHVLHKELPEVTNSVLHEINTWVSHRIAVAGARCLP

[1] = biological target: T2, purified wild type MGL (wt-MGLL 6H-11-313) (Homo sapiens, UniProt Q99685)
T2 sequence (Q99685 1-303): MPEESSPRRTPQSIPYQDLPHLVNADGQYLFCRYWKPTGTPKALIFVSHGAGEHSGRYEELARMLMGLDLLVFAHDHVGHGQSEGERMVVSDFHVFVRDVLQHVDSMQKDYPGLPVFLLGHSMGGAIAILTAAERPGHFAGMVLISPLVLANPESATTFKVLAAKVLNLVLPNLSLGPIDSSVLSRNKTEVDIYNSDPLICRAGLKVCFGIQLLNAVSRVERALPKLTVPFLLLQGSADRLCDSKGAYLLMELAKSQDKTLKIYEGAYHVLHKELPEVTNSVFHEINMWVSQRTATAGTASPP

mutant MGL = biological target: T3, mutant MGL (Homo sapiens, UniProt Q99685, L169S/L176S); experiment: MGL ThermoFluor assay - mutant; type: binding
T3 sequence (Q99685 1-303 L169S/L176S): T2 sequence (Q99685 1-303) with L169S, L176S

[2] = ThermoFluor concentration-response, read-out: MGL mutant ThermoFluor Kd
[3] = ThermoFluor thermal stability binding assay, read-out: MGL mutant ThermoFluor Kd
[4] = ThermoFluor, compound concentration measured by qNMR, read-out: MGL mutant ThermoFluor qKd (using qNMR conc.)
[5] = compound concentration measured by qNMR, read-out: MGL mutant ThermoFluor qKd (using qNMR conc.)
[6] = ThermoFluor, compound concentration measured by qNMR, read-out: MGL mutant ThermoFluor qKd (μM) (using qNMR conc.)

Row | SMILES | 2-AG accumulation, % of vehicle control at 1 µM (MGL) | IC50 [1] | Kd (mutant MGL; [2]) | 2-AG accumulation, % of vehicle control at 10 µM (MGL) | Kd (mutant MGL; [3]) | Kd (mutant MGL; [4]) | Kd (mutant MGL; [5]) | Kd (mutant MGL; [6])
1 | Cc1c(C(=O)N2CCN(C3CN(C(=O)c4cscn4)C3)CC2)sc2cc(C(F)(F)F)ccc12 [Cpd 705] | 487% | 99 nM | 0.012 µM | – | – | – | – | –
2 | CC1CN(C2CN(C(=O)c3ccc(Cc4ccccc4)cc3)C2)CCN1C(=O)c1nccs1 (stereo not shown) [Cpd 115] | – | 11.7 nM | 0.037 µM | 579% | – | – | – | –
3 | O=C(c1ccc2c(c1)CCN2Cc1ccc(C(F)(F)F)cc1)N1CC(N2CCN(C(=O)c3nccs3)CC2)C1 [Cpd 882] | 697% | < 5 nM | 0.012 µM | – | – | – | – | –
4 | O=C(c1cc2cc(-c3cccc(C(F)(F)F)c3)ccc2o1)N1CC(N2CCN(C(=O)c3nccs3)CC2)C1 [Cpd 1343] | 838% | < 5 nM | – | – | 0.077 µM | – | – | –
5 | Cc1c(-c2ccccc2)oc2c(C(=O)N3CC(N4CCN(C(=O)c5nccs5)CC4)C3)cccc2c1=O [Cpd 476] | – | 338 nM | 0.0667 µM | 272% | – | – | – | –
6 | CCCN(CCC)S(=O)(=O)c1ccc(C(=O)N2CC(N3CCN(C(=O)c4nccs4)CC3)C2)cc1 [Cpd 658] | 351% | 9 nM | – | – | – | 0.402 µM | – | –
7 | CC(C)(C)c1ccc(C(=O)N2CC(N3CCN(C(=O)c4nccs4)CC3)C2)cc1 [Cpd 672] | 268% | 17 nM | 0.016 µM | – | – | – | – | –
8 | O=C(c1ccc(N2CCCC2)cc1)N1CC(N2CCN(C(=O)c3nccs3)CC2)C1 [Cpd 669] | 583% | 15 nM | 0.005 µM | – | – | – | – | –
9 | Cn1cc(Cc2ccc(F)cc2)c2ccc(C(=O)N3CC(N4CCN(C(=O)c5cscn5)CC4)C3)cc21 [Cpd 1027] | 785% | 14 nM | – | – | – | – | 0.012 µM | –
10 | CC(C)Cc1ccc(C(=O)N2CC(N3CCN(C(=O)c4nccs4)CC3)C2)cc1 [Cpd 891] | 422% | < 5 nM | 0.008 µM | – | – | – | – | –
11 | O=C(c1ccc(S(=O)(=O)c2cccc(C(F)(F)F)c2)cc1)N1CC(N2CCN(C(=O)c3nccs3)CC2)C1 [Cpd 651] | 258% | 7 nM | 0.025 µM | – | – | – | – | –
12 | Cc1cn(-c2ccc(F)c(F)c2)c2ccc(C(=O)N3CCN(C4CN(C(=O)c5nccs5)C4)CC3)cc12 [Cpd 1134, 1-(3,4-Difluorophenyl)-3-methyl-5-({4-[1-(1,3-thiazol-2-ylcarbonyl)azetidin-3-yl]piperazin-1-yl}carbonyl)-1H-indole] | 774% | 25 nM | – | – | – | 0.009 µM | – | –
13 | CCCCCCCCCCCCCCCC(=O)N1CC(N2CCN(C(=O)c3nccs3)CC2)C1 [Cpd 636] | 296% | 21 nM | 0.119 µM | – | – | – | – | –
14 | O=C(c1ccc2c(-c3ccccc3)cccc2c1)N1CC(N2CCN(C(=O)c3nccs3)CC2)C1 [Cpd 338, 1-{1-[(5-Phenylnaphthalen-2-yl)carbonyl]azetidin-3-3yl}-4-(1,3-thiazol-2-ylcarbonyl)piperazine] | – | < 5 nM | – | 791% | 0.0011 µM | – | – | –
15 | CCCCCCCC/C=C\CCCCCCCC(=O)N1CC(N2CCN(C(=O)c3nccs3)CC2)C1 [Cpd 641] | 397% | < 5 nM | 0.118 µM | – | – | 0.136 µM | – | –
16 | O=C(c1ccc(-c2ccc(C(F)(F)F)s2)cc1)N1CCN(C2CN(C(=O)c3ccc[nH]3)C2)CC1 [Cpd 1162] | 237% | 47 nM | – | – | – | – | 0.014 µM | –

Row | SMILES | 2-AG accumulation, % of vehicle control at 1 µM (MGL) | IC50 [1] | Kd (mutant MGL; [2]) | 2-AG accumulation, % of vehicle control at 10 µM (MGL) | Kd (mutant MGL; [3]) | Kd (mutant MGL; [4]) | Kd (mutant MGL; [5]) | Kd (mutant MGL; [6])
17 | O=C(c1nccs1)N1CCN(C2CN(C(=O)c3nn(-c4ccc(Cl)cc4Cl)c4c3CSC/C4=C\c3ccc(F)cc3)C2)CC1 [Cpd 1021] | 232% | 15 nM | 0.239 µM | – | – | – | – | –
18 | Cc1sc(C(=O)N2CC(N3CCN(C(=O)c4nccs4)CC3)C2)cc1-c1cccc(C(F)(F)F)c1 [Cpd 1351] | 718% | < 5 nM | – | – | – | – | – | 0.043 µM
19 | O=C(c1cc(-c2cccc(F)c2)c2[nH]ccc2c1)N1CC(N2CCN(C(=O)c3nccs3)CC2)C1 [Cpd 1183] | 549% | 85 nM | – | – | – | – | – | 0.067 µM
20 | O=C(c1nccs1)N1CCN(C2CN(C(=O)c3sc4ccc(-c5ccc(C(F)(F)F)cc5)cc4c3F)C2)CC1 [Cpd 1092] | 838% | 11 nM | 0.005 µM | – | – | – | – | –
21 | O=C(c1ccc(-c2ccccc2)cc1)N1CC(N2CCN(C(=O)c3cccs3)CC2)C1 [Cpd 13, 1-[1-(Biphenyl-4-ylcarbonyl)azetidin-3-yl]-4-(thiophen-2-ylcarbonyl)piperazine] | – | 19.2 nM | 0.003 µM | 730% | – | – | – | –
22 | Cc1ccc(-c2nnc(-c3ccc(C(=O)N4CC(N5CCN(C(=O)c6nccs6)CC5)C4)cc3)o2)cc1 [Cpd 1156] | 681% | 41 nM | 0.09 µM | – | – | – | – | –
23 | N#Cc1ccccc1-n1ccc2cc(C(=O)N3CC(N4CCN(C(=O)c5nccs5)CC4)C3)ccc21 [Cpd 1109] | 680% | 15 nM | – | – | 0.022 µM | – | – | –
24 | O=C(c1ccc2c(c1)CCN(C(=O)c1ccc[nH]1)C2)N1CC(N2CCN(C(=O)c3nccs3)CC2)C1 [Cpd 690] | 367% | 46 nM | – | – | 0.104 µM | – | – | –
25 | Cn1ccc2cc(C(=O)N3CC(N4CCN(C(=O)c5nccs5)CC4)C3)cc(-c3ccc(F)cc3)c21 [Cpd 1101] | 501% | 12 nM | – | – | – | – | – | 0.044 µM
26 | O=C(c1ccc2c(c1)CCCN2)N1CC(N2CCN(C(=O)c3nccs3)CC2)C1 [Cpd 357, 6-(3-[4-(1,3-Thiazol-2-ylcarbonyl)piperazin-1-yl]-azetidin-1-yl)carbonyl-1,2,3,4-tetrahydroquinoline] | 152% | 3750 nM | – | – | 0.238 µM | – | – | –
27 | O=C(c1ccc(Sc2cccc(C(F)(F)F)c2)cc1)N1CC(N2CCN(C(=O)c3cscn3)CC2)C1 [Cpd 432] | 321% | < 5 nM | 0.025 µM | – | – | – | – | –
28 | O=C(c1ccc2c(c1)c(Cl)cn2-c1ccc(F)cc1)N1CC(N2CCN(C(=O)c3nccs3)CC2)C1 [Cpd 1365, 3-Chloro-1-(4-fluorophenyl)-5-({3-[4-(1,3-thiazol-2-ylcarbonyl)piperazin-1-yl]azetidin-1-yl}carbonyl)-1H-indole] | 909% | < 5 nM | 0.002 µM | – | – | – | – | –
29 | O=C(c1ccc2c(ccn2-c2ccc(C(F)(F)F)cc2)c1)N1CC(N2CCN(C(=O)c3ccc[nH]3)CC2)C1 [Cpd 1339, 5-({3-[4-(1H-Pyrrol-2-ylcarbonyl)piperazin-1-yl]azetidin-1-yl}carbonyl)-1-[4-(trifluoromethyl)phenyl]-1H-indole] | 574% | < 5 nM | 0.013 µM | – | – | – | – | –
30 | O=C(c1nccs1)N1CCN(C2CN(C(=O)c3sc4c(C(F)(F)F)c(F)ccc4c3Cl)C2)CC1 [Cpd 902, 1-(1-{[3-chloro-6-fluoro-7-(trifluoromethyl)-1-benzothiophen-2-yl]carbonyl}azetidin-3-yl)-4-(1,3-thiazol-2-ylcarbonyl)piperazine] | 585% | < 5 nM | – | – | – | – | – | 0.004 µM
31 | O=C(c1ccc(C2CCCCC2)cc1)N1CC(N2CCN(C(=O)c3nccs3)CC2)C1 [Cpd 889] | 683% | < 5 nM | 0.002 µM | – | – | – | – | –
